# Data: patent US20030060438A1, “Oligonucleotides and other modulators of the NK-1 receptor pathway and therapeutic uses thereof” (priority 2000, published 2003)
# Entries after “also recorded” stand apart in the source; their conditions may differ.
# What was measured:
# Type in all cases: in vivo, rat
# NK-1 receptor [1] = experiment: Formalin test, intrathecal oligonucleotide
# Method: The formalin test is similar in some ways to the capsaicin test, in that a noxious chemical is injected under the skin. In the case of formalin, however, this produces nociceptive behavior lasting up to one hour, and thus represents a longer-term tonic pain. The pain score was determined using the same parameters outlined above for the capsaicin test. Oligonucleotides or ASCF control (artificial cerebral spinal fluid) were administered for 7 days prior to testing by continuous infusion (1 micro grams/microlitres/h) via Alzet® minipumps attached to intrathecal catheters for spinal delivery. […] Statistical analysis was performed by a two way ANOVA with time and treatment as independent measures. Time: F(9,44)=8.264, p<0.05, Treatment: F(9,44)=7.254, p<0.05.
# Antisense (AS) oligonucleotide or ASCF control (artificial cerebral spinal fluid) was administered for 7 days prior to testing by continuous infusion (0.45 micro grams/microlitres/h) via Alzet® minipumps attached to intrathecal catheters for spinal delivery. […] Statistical analysis was performed by a two way ANOVA with time and treatment as independent measures. Time: F(9,17)=7.985, p<0.05, Treatment: F(9,17)=2.541, p>0.05.
# NK-1 receptor [2] = experiment: Intradermal substance P-induced plasma extravasation in skin (Evans blue); conditions: 300 micro grams/kg, Q12 h, intraperitoneal for 6 days; intradermal substance P 6.7 nmol/100 microlitres
# Method: Intradermal injection of substance P and neurokinin A produce a wheal and flare inflammatory reaction. Antisense (AS) oligonucleotide (300 micro grams/kg, Q12 h, intraperitoneal) or saline was administered for 6 days prior to experimentation. Substance P or neurokinin A was injected into the dermis of the skin (6.7 nmol/100 microlitres) after intravenous administration of evans blue dye which allows for assessment of neuropeptide-induced plasma extravasation. […] Statistical analysis was performed using an unpaired t-test.
# NK-1 receptor [3] = experiment: CFA arthritis model, joint flexibility, systemic oligonucleotide; conditions: day 18 after CFA; 300 micro grams/kg, Q12 h, intraperitoneal
# Method: Complete Freund's Adjuvant (CFA) was injected into the ankle joint of the rat and the flexibility of the affected joint was assessed on day 18 during the arthritic phase of the model. This was accomplished by measuring the difference between the extension and flexion of the affected joint. Antisense (AS) oligonucleotide (300 micro grams/kg, Q12 h, intraperitoneal) or saline was administered for 2 days prior to CFA injection and for the subsequent 18 days. […] Statistical analysis was performed using a one way ANOVA and post hoc analysis using the Dunnett's test.
# NK-1 receptor [4] = experiment: Capsaicin test, nociceptive behaviour after plantar injection, intrathecal oligonucleotide; conditions: intrathecal continuous infusion 2 micro grams/microlitres/h for 7 days; vs ACSF or MIS
# Source text: The effect of intrathecal administration of NK-1 receptor antisense oligonucleotide on the nociceptive responses induced by capsaicin is shown in FIG. 2. This test consists of injecting a dilute solution of the active ingredient of hot peppers, capsaicin subcutaneously in the plantar surface of the rat hind paw. Capsaicin, C18H27NO3, is a known painful stimulus, especially of c-fibers, which are associated with substance P.
# Capsaicin produces nociceptive (pain) behaviors over a period of about 5 minutes. The index of nociceptive behavior was assessed based a weighted pain intensity scale, where the animal is given a value of 0 for showing no signs of favoring of the injected paw, 1—favoring of hind paw such that it is resting lightly on the floor, 2—elevation of hind paw, 3—licking or vigorously shaking the hind paw. The numerical ratings were calculated by multiplying the amount of time the rats spent in each category by the weighted factor indicated above. This was expressed by the following formula: (time spent in category 0*0+time spent in category 1*1+time spent in category 2*2+time spent in category 3*3)/180 seconds. Oligonucleotides or ASCF control (artificial cerebral spinal fluid) were administered for 7 days prior to testing by continuous infusion (2 micro grams/microlitres/h) via Alzet™ minipumps attached to intrathecal catheters for spinal delivery. […]
# NK-1 receptor [5] = experiment: CFA arthritis model, collagen breakdown products in plasma, systemic oligonucleotide; conditions: days 3 and 18 following CFA injection; 300 micro grams/kg, Q12 h, intraperitoneal
# Method: Complete Freund's Adjuvant (CFA) was injected into the ankle joint of the rat and the levels of collagen breakdown products were assessed on days 3 and 18 following CFA injection. This was accomplished by measuring collagen degradation in the plasma of blood samples taken from the tail vein of rats while lightly anesthetized with halothane anesthesia. Antisense (AS) oligonucleotide (300 micro grams/kg, Q12 h, intraperitoneal) or saline was administered for 2 days prior to CFA injection and for the subsequent 18 days. […] (Pervious experiments have identified that the levels of collagen breakdown products are maximal at day 3-5 after CFA injection). Statistical analysis was performed using an unpaired t-test.
# NK-1 receptor [6] = experiment: CFA ankle joint arthritis model, ankle circumference, intrathecal oligonucleotide; conditions: intrathecal 1 micro grams/microlitres/h from 48 h prior to CFA injection; vs ACSF or MIS
# Method: Complete Freund's Adjuvant (CFA) injection into the ankle joint of the rat produces two responses, an inflammatory response that begins within 24 hours and lasts approximately one week, and a later inflammatory response combined with symptoms modelling arthritis. Oligonucleotides or ASCF control (artificial cerebral spinal fluid) was administered for 48 h prior to CFA injection and continuously for the testing days (1 micro grams/microlitres/h) via Alzet® minipumps attached to intrathecal catheters for spinal delivery. […] Statistical analysis was performed using a one way ANOVA and post hoc analysis using the Dunnett's test.
# NK-1 receptor [7] = experiment: CFA ankle joint arthritis model, ankle circumference, systemic oligonucleotide; conditions: 300 micro grams/kg, Q12 h, intraperitoneal from 2 days prior to CFA
# Method: Complete Freund's Adjuvant (CFA) injection (13.6 micro grams/25 microlitres) into the ankle joint of the rat produces two responses, an inflammatory response that begins within 24 hours and lasts approximately one week, and a later inflammatory response combined with symptoms modeling arthritis. Antisense (AS) oligonucleotide (300 micro grams/kg, Q12 h, intraperitoneal) or saline was administered for 2 days prior to CFA injection and throughout the time course of testing. In control animals CFA induces two phases of response as assessed by ankle circumference; the first is maximal at 48 h after injection and the second at day 18. […] Statistical analysis was performed using a two way ANOVA and post hoc analysis using the tukey's test.
substance,measurement,setting,value
"5′gac gtt atc cat ttt ggg g3′ (antisense GACGTTATCCATTTTGGGG; listed as DNA, chemistry not fully specified) [NK-1 receptor antisense oligonucleotide used in all experiments]","formalin-induced nociceptive responses, lower dose",NK-1 receptor [1]; intrathecal continuous infusion 0.45 micro grams/microlitres/h for 7 days prior to testing,without effect; also recorded: no attenuation
same,formalin-induced nociceptive scores,NK-1 receptor [1]; intrathecal continuous infusion 1 micro grams/microlitres/h for 7 days prior to testing,nociceptive scores are less
same,substance P-induced plasma extravasation (skin),NK-1 receptor [2],significantly reduced
same,joint flexibility (difference between extension and flexion) compared to saline controls,NK-1 receptor [3],significantly improved flexibility
same,joint flexibility compared to naïve animals,NK-1 receptor [3],not significantly different
same,capsaicin-induced nociceptive behavior (weighted pain score),NK-1 receptor [4],less time spent in nociceptive behavior
same,collagen breakdown products in plasma compared to saline controls,NK-1 receptor [5],significant attenuation
same,"magnitude of inflammation, measured as ankle circumference",NK-1 receptor [6],less
same,"magnitude of inflammation, measured as ankle circumference, first phase",NK-1 receptor [7]; first phase maximal at 48 h,less
same,"magnitude of inflammation, measured as ankle circumference, second phase",NK-1 receptor [7]; second phase maximal at day 18,less
